We go through twelve molecules from US8455495B2, “Pyridazino-pyridinone compounds and methods of use” (Amgen Inc., priority 2008, dated 2013).

Like-named read-outs stand apart in the source and are kept apart here. Where only a bound is given, the exact number is not on record here.

For one assay, the target named is recombinant human p38α (Homo sapiens, UniProt Q16539). The experiment in a line: Purified and activated recombinant human p38α HTRF assay. Conditions: 1 nM p38α, 50 μM ATP, GST-ATF2 substrate, read-out: p38a IC50. It counts as biochemical. On the procedure: Purified and Activated Recombinant Human p38α Assay Kinase Reaction Buffer: […] HTRF Detection Buffer: […] Serial Dilution of Compounds: […] Columns 6 and 12 (HI controls and LO controls respectively) in the drug plate were reserved as controls and contained only DMSO. Kinase Reaction: […] See table below for actual concentrations. In the absence of substrate, the background was measured as LO control. […] Assay Reagent Concentrations: […] HTRF Detection: […] After 60 minutes incubation at room temperature, the assay plate was read in a Discovery Plate Reader. The wells were excited with coherent 320 nm light and the ratio of delayed ([…] post excitation) emissions at […] (native europium fluorescence) and 665 nm (europium fluorescence transferred to allophycocyanin-an index of substrate phosphorylation) was determined (Park et al, 1999). Data Analysis: […] Data (consisting of POC and inhibitor concentration in μM) was fitted to a 4-parameter equation ([…]))), where A is the minimum y (POC) value, B is the maximum y (POC), C is the x (compound concentration) at the point of inflection and D is the slope factor, using a Levenburg-Marquardt non-linear regression algorithm. The inhibition constant (Ki) of the inhibitor was estimated from the IC50 (compound concentration at the point of inflection C) using the Cheng-Prussof equation: […] All results were expressed as the mean±the standard error of the mean. Data acquisition and non-linear regression algorithms were performed using Activity Base v5.2 and XL-fit software v4.1 respectively. All data was archived using Activity Base v5.2 software.
Background: Time-resolved FRET reads energy transfer from a long-lived donor to a nearby acceptor.

The subject of assay [1] is TNF-α induced IL-8 in 50% human whole blood. The experiment in a line: Inhibition of TNF-α induced IL-8 in 50% human whole blood. In kind it is cell-based. On the procedure:
Inhibition of TNF-α Induced IL-8 in 50% Human Whole Blood
Test compounds were evaluated in vitro for the ability to inhibit the production of secreted IL-8 by whole blood activated with TNF-α. Fresh human whole blood was obtained from healthy, non-medicated volunteers in sodium heparin tubes.
Compound Dilution—Assay Procedure
Test compounds are serially diluted 1:3 in DMSO and then diluted 1:250 into R10 (RPMI 1640, 10% human serum AB, 1× pen/strep/glutamine) to the 4× working concentration to be used in the assay. 100 ul heparinized whole blood is plated into wells of 96 well flat bottom plates. 50 ul of either 4× compound or DMSO control (Final DMSO concentration is 0.1%) are added to the appropriate wells. Plates are incubated for 1 hour at 37 degrees Celsius. 50 ul of 4×TNF-α (4 nM TNF-α, for a final concentration of 1 nM) or control (media alone) is added to the appropriate wells (Total volume=200 ul). Plates are incubated overnight (16-18 hours). 100 ul of supernatant is collected and stored in 96-well round bottom polypropylene plates at −80 degrees Celsius or assayed immediately for IL-8.
Cytokines are measured on antibody (Ab) sandwich ECL based 96-well detection plates. 20 ul of supernatant are added to plate and plate is sealed and shaken at RT for 1 hour. 130 ul of detection Ab cocktail is added and plates are sealed and shaken for 1 hour in the dark at RT. Plates are read on MSD Sector HTS instrument. Data are analyzed and IC50 values generated using Activity Base and X1-fit programs.

Assay [2] deals with production of IL-1β, IL-6, and TNF-α by PBMC activated with LPS. The experiment in a line: Lipopolysaccharide-activated PBMC cytokine production assay. In kind it is cell-based. To be noted: Homo sapiens, LPS 100 ng/mL, 18 hours, read-out: IC50 in PBMC cytokine production assay. On the procedure:
Lipopolysaccharide-Activated Pbmc Cytokine Production Assay
Test compounds were evaluated in vitro for the ability to inhibit the production of IL-1β, IL-6, and TNF-α by PBMC activated with bacterial lipopolysaccharide (LPS). Fresh leukocytes were obtained from a local blood bank, and peripheral blood mononuclear cells (PBMCs) were isolated by density gradient centrifugation on Ficol-Paque Plus (Pharmacia).
Preparation of Test Compound Stock Solutions
All reagents were prepared in RPMI 1640+10% v/v human AB serum+1× Pens/Strep/Glu (assay medium). Test compounds were dissolved in 100% DMSO and serially diluted in 96-well polypropylene round bottom micro titer plates (drug plate). Serial dilutions were then diluted 1:250 into assay medium to a 4× working concentration. Compound serial dilutions were half-log, 10 point titrations with a final starting concentration of 1 μM.
Treatment of Cells with Test Compounds and Activation with Lipopolysaccharide
LPS was prepared to a 4× concentration in assay medium. 100 μl of PBMC (1×10^6 cells/ml) were plated in a 96-well polystyrene flat bottom micro titer tissue culture plate and incubated with 50 μl of 4× compound serial dilution for 1 hour at 37° C., 5% CO2 in a tissue culture incubator. 50 μl 4×LPS or control was added and the plates were incubated at 37° C., 5% CO2 in a tissue culture incubator for 18 hours. The final DMSO concentration was 0.1%. The total volume was 200 μL. The final LPS concentration was 100 ng/mL. After 18 hours culture supernatants were removed and IL-1β, IL-6, and TNF-α presence in the supernatants was quantified using MSD ECL based technology.
20 μL of culture supernatant were added to MSD plates, and incubated for one hour at room temperature. 20 μL of detection antibody diluted in antibody diluent (1 μg/mL), and 110 μL of 2× Read Buffer P was added, and incubated for one hour at RT. Electrochemiluminescence was measured using the SECTOR HTS Imager (MSD, Gaithersburg, Md.).
Compound IC50 values were calculated as follows: The proportion of cytokine production in the presence of compound compared to the cytokine production in the presence of the DMSO vehicle alone (Hi control) was calculated using the formula: Percent Control (POC)=(compound−average Lo)/(average Hi−average Lo)*100.

Assay [3] deals with TNF-α production by LPS-activated THP1 cells. In words: Lipopolysaccharide-activated THP1 cell TNF production assay. Conditions: Homo sapiens, THP-1; THP1 cells, LPS, 3 hours; read-out: IC50 in THP-1 cellular TNF production assay. It counts as cell-based. On the procedure: Lipopolysaccharide-Activated THP1 Cell TNF Production Assay
THP1 cells were resuspended in fresh THP1 media (RPMI 1640, 10% heat-inactivated FBS, 1×PGS, 1×NEAA, plus 30 μM βME) at a concentration of 1.5×10^6 cells per mL. One hundred microliters of cells per well were plated in a polystyrene 96-well tissue culture plate. 1.5 micrograms per mL of bacterial LPS was prepared in THP1 media and transferred to the first 11 columns of a 96-well polypropylene plate. Column 12 contained only THP1 media for the LO control. Compounds were dissolved in 100% DMSO and serially diluted 3 fold in a polypropylene 96-well microtiter plate (drug plate). Columns 6 and 12 were reserved as controls (HI controls and LO controls respectively) and contained only DMSO. 10 μL of LPS followed by one microliter of inhibitor compound from the drug plate was transferred to the cell plate. The treated cells were induced to synthesize and secrete TNF-α in a 37° C. humidified incubator with 5% CO2 for 3 hours. Fifty microliters of conditioned media was transferred to a 96-well MULTI-ARRAY™ 96-well small spot plate—custom coated with MAB610 containing 100 μL of 2× Read Buffer P supplemented with 0.34 nM AF210NA polyclonal Ab labeled with ruthenium (MSD—Sulfo-TAG™—NHS ester). After an overnight incubation at room temperature with shaking, the reaction was read on the Sector Imager™ 6000. […] The amount of secreted TNF-α in the presence of test compounds compared with that in the presence of DMSO vehicle alone (HI control) was calculated using the formula: % control (POC)=(cpd−average LO)/(average HI−averageLO)*100. Data (consisting of POC and inhibitor concentration in μM) was fitted to a 4-parameter equation (y=A+((B−A)/(1+((x/C)^D))), where A is the minimum y (POC) value, B is the maximum y (POC), C is the x (cpd concentration) at the point of inflection and D is the slope factor) using a Levenburg-Marquardt non-linear regression algorithm.

Setting [4] is: TNF-α (1 nM) induced IL-8, 50% human whole blood, 16-18 h, read-out: WB TNF/IL8 IC50.

recombinant human p38α, sequence (Q16539 whole entry): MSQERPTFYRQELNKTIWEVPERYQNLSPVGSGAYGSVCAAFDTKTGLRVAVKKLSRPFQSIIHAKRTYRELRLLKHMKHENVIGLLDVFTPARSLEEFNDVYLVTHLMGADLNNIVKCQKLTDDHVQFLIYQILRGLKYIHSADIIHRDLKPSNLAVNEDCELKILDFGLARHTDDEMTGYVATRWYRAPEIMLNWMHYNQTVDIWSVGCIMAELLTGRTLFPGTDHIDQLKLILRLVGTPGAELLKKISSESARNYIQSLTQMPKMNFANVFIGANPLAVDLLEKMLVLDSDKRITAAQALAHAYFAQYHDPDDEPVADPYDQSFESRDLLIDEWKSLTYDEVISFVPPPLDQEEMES

Regarding `Cn1c(=O)c(-c2cc(C(=O)O)ccc2Cl)cc2cnnc(-c3ccc(F)cc3F)c21` [Example 4, 4-chloro-3-(8-(2,4-difluorophenyl)-1-methyl-2-oxo-1,2-dihydropyrido[3,2-d]pyridazin-3-yl)benzoic acid], the IC50 at recombinant human p38α was above 1000 nM; in assay [1] (read-out: WB TNF/IL8 IC50, TNF-α (1 nM) induced IL-8, 50% human whole blood, 16-18 h) it was above 2500 nM.

As to `CCn1c(=O)c(-c2cc(C(=O)NC3CC3)cc(F)c2C)cc2cnnc(-c3ccc(F)cc3F)c21` [Example 22, N-cyclopropyl-3-(8-(2,4-difluorophenyl)-1-ethyl-2-oxo-1,2-dihydropyrido[2,3-d]pyridazin-3-yl)-5-fluoro-4-methylbenzamide], the results for the IC50 (at recombinant human p38α; in assay [2]; in assay [3]) were 1.3 nM, at most 1000 nM and at most 1000 nM, respectively.

With `CCn1c(=O)c(-c2cc(C(=O)NC3CC3)ccc2C)cc2cnnc(-c3ccc(F)cc3F)c21` [Example 23, N-cyclopropyl-3-(8-(2,4-difluorophenyl)-1-ethyl-2-oxo-1,2-dihydropyrido[2,3-d]pyridazin-3-yl)-4-methylbenzamide], the IC50 on recombinant human p38α was 1.5 nM; in assay [2], at most 1000 nM; in assay [3], at most 1000 nM.

Regarding `Cc1ccc(C(=O)Nc2ccon2)cc1-c1cc2cnnc(-c3ccccc3Cl)c2n(C)c1=O` [Example 25, 3-(8-(2-chlorophenyl)-1-methyl-2-oxo-1,2-dihydropyrido[2,3-d]pyridazin-3-yl)-N-3-isoxazolyl-4-methylbenzamide], the values for the IC50 (on recombinant human p38α; in assay [2]; in assay [3]) were 0.9 nM, at most 1000 nM and at most 1000 nM, respectively.

Turning to `Cc1ccc(C(=O)NC2CC2)cc1-c1cc2cnnc(-c3ccc(S(C)(=O)=O)cc3C)c2n(C)c1=O` [Example 26, N-cyclopropyl-4-methyl-3-(1-methyl-8-(2-methyl-4-(methylsulfonyl)phenyl)-2-oxo-1,2-dihydropyrido[2,3-d]pyridazin-3-yl)benzamide], the IC50 was 3.3 nM at recombinant human p38α and 10 nM in assay [1] (setting [4]).

In the case of `Cc1cc(S(C)(=O)=O)ccc1-c1nncc2cc(-c3cc(C(=O)NC4CC4)cc(F)c3C)c(=O)n(C)c12` [Example 27, N-cyclopropyl-3-fluoro-4-methyl-5-(1-methyl-8-(2-methyl-4-(methylsulfonyl)phenyl)-2-oxo-1,2-dihydropyrido[2,3-d]pyridazin-3-yl)benzamide], the IC50 turned out to be 2.5 nM at recombinant human p38α and 3.9 nM in assay [1] (setting [4]).

For the molecule `CCn1c(=O)c(-c2cc(C(=O)NC3CC3)ccc2C)cc2cnnc(-c3ccccc3Cl)c21` [Example 28, 3-(8-(2-chlorophenyl)-1-ethyl-2-oxo-1,2-dihydropyrido[2,3-d]pyridazin-3-yl)-N-cyclopropyl-4-methylbenzamide], the IC50 (on recombinant human p38α; in assay [1] (setting [4])) was 1 nM each time.

Turning to `Cc1ccc(C(=O)NC2(C)CC2)cc1-c1cc2cnnc(-c3ccc(F)cc3F)c2n(C)c1=O` [Example 29, 3-(8-(2,4-difluorophenyl)-1-methyl-2-oxo-1,2-dihydropyrido[2,3-d]pyridazin-3-yl)-4-methyl-N-(1-methylcyclopropyl)benzamide], the IC50 is 3 nM on recombinant human p38α, at most 1000 nM in assay [2] and at most 1000 nM in assay [3].

As to `Cc1cnc(C(=O)NC2CC2)cc1-c1cc2cnnc(-c3ccc(F)cc3F)c2n(C)c1=O` [Example 30, N-cyclopropyl-4-(8-(2,4-difluorophenyl)-1-methyl-2-oxo-1,2-dihydropyrido[2,3-d]pyridazin-3-yl)-5-methyl-2-pyridinecarboxamide], the IC50 on recombinant human p38α is 14 nM; in assay [1] (setting [4]) it was 38 nM.

As for `CNC(=O)c1ccc(C)c(-c2cc3cnnc(-c4ccc(F)cc4F)c3n(C)c2=O)c1` [Example 31, 3-(8-(2,4-difluorophenyl)-1-methyl-2-oxo-1,2-dihydropyrido[2,3-d]pyridazin-3-yl)-N,4-dimethylbenzamide], the IC50 at recombinant human p38α turned out to be 2.7 nM; in assay [1] (setting [4]) it was 30 nM.

Turning to `Cc1ccc(C(=O)Nc2nccs2)cc1-c1cc2cnnc(-c3ccc(F)cc3F)c2n(C)c1=O` [Example 32, 3-(8-(2,4-difluorophenyl)-1-methyl-2-oxo-1,2-dihydropyrido[2,3-d]pyridazin-3-yl)-4-methyl-N-1,3-thiazol-2-ylbenzamide], the figures for the IC50 (at recombinant human p38α; in assay [1] (setting [4])) were 1.2 nM and 7.3 nM, respectively.

In the case of `Cc1ccc(C(=O)Nc2ccon2)cc1-c1cc2cnnc(-c3ccc(F)cc3F)c2n(C)c1=O` [Example 33, 3-(8-(2,4-difluorophenyl)-1-methyl-2-oxo-1,2-dihydropyrido[2,3-d]pyridazin-3-yl)-N-3-isoxazolyl-4-methylbenzamide], in assay [1] (setting [4]), the IC50 was found to be 1.7 nM.
